# Where “and” joins values, the source holds several entries; their conditions need not be identical. Identical values can stand only once. Like-named read-outs stand apart in the source and are kept apart here.
# Experiments:
# [1] = target: T1, recombinant active full-length human MEK4 (Homo sapiens, UniProt P45985); assay: ADP-Glo kinase activity assay, MEK4; type: biochemical
# T1 construct: recombinant active full-length human MEK4 (Carna Biosciences); purchased Carna Biosciences
# T1 sequence (P45985 1-399): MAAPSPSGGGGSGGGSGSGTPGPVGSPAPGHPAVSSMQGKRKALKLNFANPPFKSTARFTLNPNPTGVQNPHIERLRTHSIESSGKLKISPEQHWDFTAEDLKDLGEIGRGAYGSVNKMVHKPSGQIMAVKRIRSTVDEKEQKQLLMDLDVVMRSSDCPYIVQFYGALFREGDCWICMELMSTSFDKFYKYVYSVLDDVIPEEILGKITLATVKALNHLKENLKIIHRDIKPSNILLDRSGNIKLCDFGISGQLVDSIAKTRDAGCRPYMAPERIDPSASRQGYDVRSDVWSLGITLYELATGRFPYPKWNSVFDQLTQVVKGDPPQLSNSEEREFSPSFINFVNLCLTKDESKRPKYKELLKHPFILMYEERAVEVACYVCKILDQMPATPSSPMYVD
# Protocol: (§1) Procedure for a 5 μL Kinase reaction using the ADP-Glo Kinase Assay Kit from Promega. Staurosporine was used as the positive control, and DMSO as the negative control. Activity of recombinant active full-length human MEK4 (Carna Biosciences) was measured using the ADP-Glo assay with recombinant full-length human p38α (MAPK14). Kinase reactions with MEK7 (Carna Biosciences) were done at the same concentration and amounts with recombinant full-length human p38α (MAPK14).
# (§2) For each well, 4 ng of MEK4 and 600 ng of p38α in Kinase buffer (CST) were used, and 1 μL of this mixture was dispensed per well.
# (§3) Inhibitor was prepared in a DMSO solution. A dose response dilution was done in a 384-well Echo transfer plate. […] This mixture was allowed to incubate for 30 minutes at room temperature.
# (§4) Using a Mantis, 1 μL, of an 8 μM ATP solution was added to each well, and the plate was allowed to incubate for another 1 hour at room temperature. […] All experiments were done in triplicate on the plate, and at least in one separate technical duplicate.
# [2] = system: phospho-p42/44 MAPK in HEK293T cells; assay: p42/44 MAPK (ERK1/2) phosphorylation, western blotting, HEK293T; type: cell-based, human; conditions: anisomycin alone
# Protocol: (§5) HSP90 was used as loading control. The blots are representative of at least three biological replicates.
# (§6) We next evaluated the effects of our inhibitors on the phosphorylation activity and expression of MEK1/2, MEK3/6, and MEK7. […] We also evaluated the effects on p42/44 MAPK (ERK1/2), which functions downstream of MEK1/2.
# (§7) Whole cell extracts of cultured cells were prepared in radioimmunoprecipitation (RIPA) lysis buffer supplemented with phosphatase and protease inhibitors (Calbiochem). Protein concentration was determined by the bicinchoninic acid assay (BCA) (ThermoFisher) and separated by the SDS-PAGE technique. […] Secondary anti-mouse IgG (A4416) and anti-rabbit IgG (A6667) antibodies were purchased from Sigma-Aldrich and used a 1:4000 dilution. Images of blots were acquired on HyBlot ES Autoradiography Film (Thomas Scientific, Swedesboro, NJ, USA) following incubation with SuperSignal West Pico PLUS (ThermoFisher).
# [3] = system: phospho-p38 MAPK in HEK293T cells; assay: p38 MAPK phosphorylation, western blotting, HEK293T; type: cell-based, human; conditions: anisomycin alone
# Protocol: as §5, §6, §7
# [4] = target: T2, MEK7 (Homo sapiens, UniProt O14733); assay: ADP-Glo kinase activity assay, MEK7; type: biochemical
# T2 construct: purchased Carna Biosciences
# T2 sequence (O14733 1-419): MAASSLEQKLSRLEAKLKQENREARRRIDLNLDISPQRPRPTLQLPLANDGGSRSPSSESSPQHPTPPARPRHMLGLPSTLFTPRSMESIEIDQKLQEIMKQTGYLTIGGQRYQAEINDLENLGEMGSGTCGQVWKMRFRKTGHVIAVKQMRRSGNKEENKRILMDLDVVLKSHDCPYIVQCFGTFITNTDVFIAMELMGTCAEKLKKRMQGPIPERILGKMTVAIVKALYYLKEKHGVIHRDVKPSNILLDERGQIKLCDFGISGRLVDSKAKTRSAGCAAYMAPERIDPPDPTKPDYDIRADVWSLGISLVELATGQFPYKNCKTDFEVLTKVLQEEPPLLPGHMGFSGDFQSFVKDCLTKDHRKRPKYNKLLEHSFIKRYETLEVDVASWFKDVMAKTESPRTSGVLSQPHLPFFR
# Protocol: The compounds were then evaluated both in vitro and in a cellular system. When studying kinase inhibitors, there are a multitude of ways to evaluate selectivity across kinases.
# as §1, §2, §3, §4
# [5] = system: phospho-p42/44 MAPK in MiaPaCa2 cells; assay: p42/44 MAPK phosphorylation, western blotting, MiaPaCa2; type: cell-based, human; conditions: MiaPaCa2, U0126 1 μM or 5 μM
# Protocol: (§8) The effects of different treatments on phospho-p42/44 MAPK and total p42/44 MAPK expression levels were determined by western blotting. HSP90 was used as loading control. The blots are representative of at least three biological replicates.
# as §7
# [6] = system: phospho-p42/44 MAPK in CD18 cells; assay: p42/44 MAPK phosphorylation, western blotting, CD18; type: cell-based, human; conditions: CD18, U0126 1 μM or 5 μM, 1 hour pretreatment
# Protocol: as §8, §7
# [7] = headline value per compound, read-out: IC50 (MEK4, ADP-Glo)
# [8] = individual experiment, values in brackets, n=3, read-out: IC50 of each experiment (IC50±SEM), MEK4
# [9] = individual experiment, values in brackets, n=3, read-out: MEK7 IC50 of each experiment (IC50±SEM)
# [10] = headline value per compound, read-out: MEK7 IC50
Structure (SMILES),"IC50 [1, 7] [nM]","IC50 [4, 9]","IC50 [4, 10] [nM]",other results
"Fc1ccc2c(-c3ccc4c(c3)OCO4)nn(Cc3ccccc3)c2c1 [Compound S3, 3-(benzo[d][1,3]dioxol-5-yl)-1-benzyl-6-fluoro-1H-indazole]",> 80000,–,–,–
"CCC(=O)Nc1ccccc1-c1n[nH]c2cc(F)ccc12 [Compound 8c, N-(2-(6-fluoro-1H-indazol-3-yl)phenyl)propionamide]",> 80000,–,–,–
"Cn1nc(-c2ccc3c(c2)OCO3)c2ccc(F)cc21 [Compound S2, 3-(benzo[d][1,3]dioxol-5-yl)-6-fluoro-1-methyl-1H-indazole]",> 80000,–,–,–
"Nc1ccccc1-c1n[nH]c2cc(F)ccc12 [Compound 8b, 2-(6-fluoro-1H-indazol-3-yl)aniline]",> 80000,–,–,–
"COc1ccc(C[C@H]2NC[C@H](O)[C@H]2OC(C)=O)cc1 [anisomycin, reference compound]",–,–,–,effect of anisomycin on p42/44 MAPK phosphorylation [2]: decreases p42/44 MAPK phosphorylation; effect of anisomycin on p38 MAPK phosphorylation [3]: did induce phosphorylation
"NS(=O)(=O)c1ccc(-c2n[nH]c3cc(C(F)(F)F)ccc23)cc1 [Compound S5, 4-(6-(trifluoromethyl)-1H-indazol-3-yl)benzenesulfonanamide]",3700,–,–,"IC50 [1, 8]: 2200 nM and 5200 nM"
"Cc1ccc2c(-c3ccc(S(N)(=O)=O)cc3)n[nH]c2c1 [Compound S4, 4-(6-methyl-1H-indazol-3-yl)benzenesulfonamide]",2700,–,–,"IC50 [1, 8]: 1600 nM and 3700 nM"
"CC(=O)c1ccc(NS(=O)(=O)c2cccc(-c3n[nH]c4cc(F)ccc34)c2)cc1 [Compound 15n, N-(4-acetylphenyl)-3-(6-fluoro-1H-indazol-3-yl)benzenesulfonamide]",–,740 nM and 1300 nM and 1800 nM,–,–
"O=S(=O)(Nc1ccc(-c2n[nH]c3cc(F)ccc23)cc1)c1cccnc1 [Compound 11a, N-(4-(6-fluoro-1H-indazol-3-yl)phenyl)pyridine-3-sulfonamide]",–,1900 nM and 3500 nM,2700,–
"O=S(=O)(Nc1cccc(-c2n[nH]c3cc(F)ccc23)c1)C1CC1 [Compound 12c, N-(3-(6-fluoro-1H-indazol-3-yl)phenyl)cyclopropanesulfonamide]",–,5600 nM and 7100 nM,6400,–
"CC(C)Oc1ccc(NS(=O)(=O)c2cccc(-c3n[nH]c4cc(F)ccc34)c2)cc1 [Compound 15i, 3-(6-fluoro-1H-indazol-3-yl)-N-(4-isopropoxyphenyl)benzenesulfonamide]",–,1800 nM and 2200 nM and 4800 nM,2900,–
"O=S(=O)(NC1CC1)c1ccc(-c2n[nH]c3cc(F)ccc23)cc1 [Compound 13c, N-cyclopropyl-4-(6-fluoro-1H-indazol-3-yl)benzenesulfonamide]",–,8100 nM and 9300 nM,8700,–
"C=CC(=O)Nc1ccccc1-c1n[nH]c2cc(F)ccc12 [Compound 8d, N-(2-(6-fluoro-1H-indazol-3-yl)phenyl)acrylamide]",> 80000,–,–,–
"O=S(=O)(Nc1ccccc1)c1cccc(-c2n[nH]c3cc(F)ccc23)c1 [Compound 14a, 3-(6-fluoro-1H-indazol-3-yl)-N-phenylbenzenesulfonamide]",–,400 nM and 610 nM and 1500 nM,840,–
"O=S(=O)(Nc1cccc(-c2n[nH]c3cc(F)ccc23)c1)c1cccnc1 [Compound 12a, N-(3-(6-fluoro-1H-indazol-3-yl)phenyl)pyridine-3-sulfonamide]",–,940 nM and 1600 nM,1300,–
CS(=O)(=O)c1ccc(NS(=O)(=O)c2cccc(-c3n[nH]c4cc(F)ccc34)c2)cc1 [Compound 15l],–,590 nM and 780 nM and 1400 nM,920,–
"N#CC(=C(/N)Sc1ccccc1N)/C(C#N)=C(\N)Sc1ccccc1N [Compound U0126, reference compound]",–,–,–,effect of U0126 on p42/44 MAPK phosphorylation [5]: decreased p42/44 MAPK phosphorylation; effect of U0126 co-treatment on p42/44 MAPK phosphorylation increased by 15o and 10e [6]: suppressed
